Source: PMC12821709, “Biomimetic Chromatography as a High-Throughput Tool for Screening Bioaccumulation and Acute Aquatic Toxicity of Pesticides” (Journal of Xenobiotics, 2025)
Converted amounts (≈) assume the structure as drawn. Like-named read-outs stand apart in the source and are kept apart here.

Legend:
[1] = assay type: physicochemical
Method: All biochromatographic experiments were performed using the gradient IAM protocols developed by Valkó and co-workers and previously implemented in this laboratory. Analyses were carried out on a Prominence-i LC-2030C 3D HPLC system (Shimadzu, Tokyo, Japan) controlled by LabSolutions software (v6.81, Kyoto, Japan) and equipped with an IAM.PC.DD2 column (10 × 4.6 mm, 10.0 µm) packed on the newer ‘Type B’ silica support and protected by a guard column (Regis Technologies, Morton Grove, IL, USA).
Mobile phase A consisted of 50 mM ammonium acetate (VWR International, Leuven, Belgium) in water, adjusted to physiological pH 7.4 with concentrated ammonia solution (Avantor Performance Materials Poland S.A., Gliwice, Poland). Ultrapure water with a resistivity of 18.2 MΩ was obtained from a Milli-Q water purification system (Merck Millipore, Darmstadt, Germany). For phospholipid affinity measurements, mobile phase B was HPLC-grade acetonitrile (Chempur, Piekary Śląskie, Poland). A linear gradient from 0 to 85% B was applied over 5.25 min, followed by an isocratic hold at 85% B for 0.5 min. The mobile phase flow rate was set at 1.5 mL/min, and the column temperature was maintained at 30 °C.
The reference substances used to calculate CHIIAM values were obtained as follows: acetanilide, butyrophenone and octanophenone from Alfa Aesar (Haverhill, MA, USA); acetophenone and paracetamol from Sigma-Aldrich (Steinheim, Germany); and heptanophenone, hexanophenone, propiophenone and valerophenone from Acros Organics (Pittsburgh, PA, USA).
Dimethyl sulfoxide (Avantor Performance Materials Poland S.A., Gliwice, Poland) was used to dissolve the analytes and to prepare stock solutions at a concentration of 200 µg/mL. UV detection was performed in the range 190–300 nm. The injection volume was 5 µL. Each compound was analyzed in duplicate, and the variation in retention times was lower than 2%. Raw retention times for the pesticides and reference standards are available in Zenodo platform https://doi.org/10.5281/zenodo.17672582.

[2] = system: rainbow trout (Oncorhynchus mykiss); settings: 96 h, ref Pesticide Properties DataBase (PPDB; University of Hertfordshire), cited from earlier work
Daphnia magna = settings: cited from earlier work
fish = settings: cited from earlier work
[3] = IAM.PC.DD2 column, gradient 0-85% acetonitrile, 50 mM ammonium acetate pH 7.4, 30 °C
[4] = 48 h, Daphnia magna, ref Pesticide Properties DataBase (PPDB; University of Hertfordshire)
[5] = in fish, dimensionless, ref Pesticide Properties DataBase (PPDB; University of Hertfordshire)

Cc1c(COC(=O)[C@@H]2[C@H](/C=C(\Cl)C(F)(F)F)C2(C)C)cccc1-c1ccccc1 (racemic) [Bifenthrin, bifenthrin]
CHIIAM (IAM chromatographic hydrophobicity index) [1, 3]: 54.4 | CHIIAM (IAM chromatographic hydrophobicity index) ([1]; IAM.PC.DD2 column, gradient 0-85% acetonitrile, 50 mM ammonium acetate pH 7.4, 30 °C, listed as bifenthrin): > 48 | LC50 Fish ([2]; listed as bifenthrin): ≈ 0.00026 mg/L | LC50 Fish [2]: 0.00026 µg/mL (≈ 0.000615 µM) | EC50 Daphnia (Daphnia magna; [4]): 0.11 ng/mL (≈ 0.00026 µM) | BCF (bioconcentration factor) (fish; [5]): 1703

C/C(=N\C#N)N(C)Cc1ccc(Cl)nc1 [Acetamiprid, acetamiprid]
CHIIAM (IAM chromatographic hydrophobicity index) [1, 3]: 13.4 | LC50 Fish [2]: 100 µg/mL (≈ 449 µM) | EC50 Daphnia (Daphnia magna; [4]): 49800 ng/mL (≈ 224 µM)

CCNc1nc(Cl)nc(NC(C)C)n1 [Atrazine, atrazine]
CHIIAM (IAM chromatographic hydrophobicity index) [1, 3]: 27.4 | LC50 Fish [2]: 4.5 µg/mL (≈ 20.9 µM) | EC50 Daphnia (Daphnia magna; [4]): 85000 ng/mL (≈ 394 µM) | EC50 Daphnia (Daphnia magna; 48 h, Daphnia magna, ref Pesticide Properties DataBase (PPDB; University of Hertfordshire), listed as atrazine): ≈ 85 mg/L | BCF (bioconcentration factor) (fish; [5]): 4.3

COP(=S)(OC)SCn1nnc2ccccc2c1=O [Azinphos-methyl, azinphos-methyl]
EC50 Daphnia (Daphnia magna; [4]): 1.1 ng/mL (≈ 0.00347 µM) | BCF (bioconcentration factor) (fish; [5]): 40

CO/C=C(/C(=O)OC)c1ccccc1Oc1cc(Oc2ccccc2C#N)ncn1 [Azoxystrobin, azoxystrobin]
CHIIAM (IAM chromatographic hydrophobicity index) [1, 3]: 31.6 | LC50 Fish [2]: 0.47 µg/mL (≈ 1.17 µM) | EC50 Daphnia (Daphnia magna; [4]): 230 ng/mL (≈ 0.57 µM)

O=C(Nc1ccccc1-c1ccc(Cl)cc1)c1cccnc1Cl [Boscalid, boscalid]
CHIIAM (IAM chromatographic hydrophobicity index) [1, 3]: 38.0 | LC50 Fish [2]: 2.7 µg/mL (≈ 7.87 µM) | EC50 Daphnia (Daphnia magna; [4]): 5330 ng/mL (≈ 15.5 µM) | BCF (bioconcentration factor) (fish; [5]): 107 | BCF (bioconcentration factor) (fish; in fish, dimensionless, ref Pesticide Properties DataBase (PPDB; University of Hertfordshire), listed as boscalid): ≈ 107

CNC(=O)Oc1cccc2ccccc12 [Carbaryl, carbaryl]
EC50 Daphnia (Daphnia magna; [4]): 6.4 ng/mL (≈ 0.0318 µM) | EC50 Daphnia (Daphnia magna; 48 h, Daphnia magna, ref Pesticide Properties DataBase (PPDB; University of Hertfordshire), listed as carbaryl): ≈ 0.0064 mg/L | BCF (bioconcentration factor) (fish; [5]): 44

CCOP(=S)(OCC)Oc1nc(Cl)c(Cl)cc1Cl [Chlorpyrifos, chlorpyrifos]
CHIIAM (IAM chromatographic hydrophobicity index) [1, 3]: 48.1 | LC50 Fish [2]: 0.025 µg/mL (≈ 0.0713 µM) | EC50 Daphnia (Daphnia magna; [4]): 0.1 ng/mL (≈ 0.000285 µM) | EC50 Daphnia (Daphnia magna; 48 h, Daphnia magna, ref Pesticide Properties DataBase (PPDB; University of Hertfordshire), listed as chlorpyrifos): 0.1 to 1 ng/mL | BCF (bioconcentration factor) (fish; [5]): 1374

CCOP(=S)(OCC)Oc1cc(C)nc(C(C)C)n1 [Diazinon, diazinon]
CHIIAM (IAM chromatographic hydrophobicity index) [1, 3]: 39.3 | LC50 Fish [2]: 3.1 µg/mL (≈ 10.2 µM) | EC50 Daphnia (Daphnia magna; [4]): 1 ng/mL (≈ 0.00329 µM) | EC50 Daphnia (Daphnia magna; 48 h, Daphnia magna, ref Pesticide Properties DataBase (PPDB; University of Hertfordshire), listed as diazinon): 0.1 to 1 ng/mL | BCF (bioconcentration factor) (fish; [5]): 500

COc1c(Cl)ccc(Cl)c1C(=O)O [Dicamba, dicamba]
CHIIAM (IAM chromatographic hydrophobicity index) ([1]; pH 7.4): 8.2 | LC50 Fish [2]: 100 µg/mL (≈ 452 µM) | EC50 Daphnia (Daphnia magna; in vivo): 41000 ng/mL (≈ 185 µM) | BCF (bioconcentration factor) (fish; in vivo): 15

COP(=S)(OC)Oc1ccc([N+](=O)[O-])c(C)c1 [Fenitrothion, fenitrothion]
CHIIAM (IAM chromatographic hydrophobicity index) [1, 3]: 38.1 | LC50 Fish [2]: 1.3 µg/mL (≈ 4.69 µM) | EC50 Daphnia (Daphnia magna; [4]): 8.6 ng/mL (≈ 0.031 µM) | BCF (bioconcentration factor) (fish; [5]): 29

CC1(C)C(C(=O)OC(C#N)c2cccc(Oc3ccccc3)c2)C1(C)C (stereo not drawn) [Fenpropathrin, fenpropathrin]
CHIIAM (IAM chromatographic hydrophobicity index) [1, 3]: 48.6 | LC50 Fish ([2]; listed as fenpropathrin): ≈ 0.0023 mg/L | LC50 Fish [2]: 0.0023 µg/mL (≈ 0.00658 µM) | EC50 Daphnia (Daphnia magna; [4]): 0.53 ng/mL (≈ 0.00152 µM) | BCF (bioconcentration factor) (fish; [5]): 1100

N#Cc1c[nH]cc1-c1cccc2c1OC(F)(F)O2 [Fludioxonil, fludioxonil]
CHIIAM (IAM chromatographic hydrophobicity index) [1, 3]: 43.5 | LC50 Fish [2]: 0.23 µg/mL (≈ 0.927 µM) | EC50 Daphnia (Daphnia magna; [4]): 400 ng/mL (≈ 1.61 µM) | BCF (bioconcentration factor) (fish; [5]): 336

CC(C)C1(C)N=C(c2ncccc2C(=O)O)NC1=O (stereo not drawn) [Imazapyr, imazapyr]
CHIIAM (IAM chromatographic hydrophobicity index) [1, 3]: −12.1 | LC50 Fish [2]: 100 µg/mL (≈ 383 µM) | EC50 Daphnia (Daphnia magna; [4]): 100000 ng/mL (≈ 383 µM) | EC50 Daphnia (Daphnia magna; 48 h, Daphnia magna, ref Pesticide Properties DataBase (PPDB; University of Hertfordshire), listed as imazapyr): ≈ 100 mg/L | BCF (bioconcentration factor) (fish; [5]): 2.54

O=[N+]([O-])NC1=NCCN1Cc1ccc(Cl)nc1 [Imidacloprid, imidacloprid]
CHIIAM (IAM chromatographic hydrophobicity index) [1, 3]: 14.2 | LC50 Fish [2]: 83 µg/mL (≈ 325 µM) | EC50 Daphnia (Daphnia magna; [4]): 85000 ng/mL (≈ 332 µM) | BCF (bioconcentration factor) (fish; [5]): 0.61 | BCF (bioconcentration factor) (fish; in fish, dimensionless, ref Pesticide Properties DataBase (PPDB; University of Hertfordshire), listed as imidacloprid): ≈ 0.6

CC1(C)C(C=C(Cl)Cl)C1C(=O)OCc1cccc(Oc2ccccc2)c1 (stereo not drawn) [Permethrin, permethrin]
CHIIAM (IAM chromatographic hydrophobicity index) [1, 3]: 54.8 | LC50 Fish [2]: 0.0125 µg/mL (≈ 0.0319 µM) | EC50 Daphnia (Daphnia magna; [4]): 0.6 ng/mL (≈ 0.00153 µM) | BCF (bioconcentration factor) (fish; [5]): 300

CCCC1COC(Cn2cncn2)(c2ccc(Cl)cc2Cl)O1 (stereo not drawn) [Propiconazole, propiconazole]
CHIIAM (IAM chromatographic hydrophobicity index) [1, 3]: 38.7 | LC50 Fish [2]: 2.6 µg/mL (≈ 7.6 µM) | EC50 Daphnia (Daphnia magna; [4]): 10200 ng/mL (≈ 29.8 µM) | BCF (bioconcentration factor) (fish; [5]): 116

CC(C)(C)C(O)(CCc1ccc(Cl)cc1)Cn1cncn1 (stereo not drawn) [Tebuconazole, tebuconazole]
CHIIAM (IAM chromatographic hydrophobicity index) [1, 3]: 39.5 | LC50 Fish [2]: 4.4 µg/mL (≈ 14.3 µM) | EC50 Daphnia (Daphnia magna; [4]): 2790 ng/mL (≈ 9.06 µM) | BCF (bioconcentration factor) (fish; [5]): 78

CCNc1nc(Cl)nc(NC(C)(C)C)n1 [Terbuthylazine, terbuthylazine]
CHIIAM (IAM chromatographic hydrophobicity index) [1, 3]: 34.3 | LC50 Fish [2]: 2.2 µg/mL (≈ 9.58 µM) | EC50 Daphnia (Daphnia magna; [4]): 21200 ng/mL (≈ 92.3 µM) | BCF (bioconcentration factor) (fish; [5]): 34 | BCF (bioconcentration factor) (fish; in fish, dimensionless, ref Pesticide Properties DataBase (PPDB; University of Hertfordshire), listed as terbuthylazine): ≈ 34
